From patent US11046657B2, “Pyrimidinone derivatives and uses thereof to neutralize the biological activity of chemokines” (Centre National de la Recherche Scientifique (CNRS), priority 2016, dated 2021)
Counter-ions that a name gives are not always drawn. One block for each compound: values may come before it.

What was measured:
CXCR4-CXCL12 binding = molecular target: T1, CXCR4-CXCL12 binding (Homo sapiens, UniProt P48061); assay: Inhibition of CXCL12-TR binding to CXCR4-GFP (FRET); conditions: for Affinity for CXCL12 (SAR): deduced from comparative examples
T1 construct: expressed in transfected cells
Procedure: Study of the changes of CXCR4-CXCL12 binding was achieved by the energy transfer technique^10,11.
Binding of Texas red-labelled CXCL12 with CXCR4-GFP fused receptor^11 induces fluorescence resonance energy transfer (FRET), which can be monitored by the reduction of GFP fluorescence emission. The characterization of CXCL12 neutraligands was evaluated in two conditions, differing by the sequence of addition of molecules. Reduction of GFP fluorescence emission was more important when neutraligands were preincubated (30 min) […] prior to the addition to cells.
The CXCR4 antagonist, T134 (20 μM) was used as a control in both incubation protocols. Data obtained were consistent with a binding to the chemokine and not to its receptor. Consequently, all selected compounds are indeed CXCL12 chemokine neutraligands and behave as chalcone-4. The neutralizing properties of the compounds are thus confirmed.

T1 sequence (P48061 22-89 limits assumed): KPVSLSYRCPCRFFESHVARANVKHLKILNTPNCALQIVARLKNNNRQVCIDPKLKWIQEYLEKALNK

melting point: 117 to 124 °C
Compound: COc1cc(-c2cc(-c3ccc(N4CCNCC4)cc3)nc(=O)[nH]2)ccc1O.Cl

melting point: 272 to 276 °C
Compound: Cl.NCCOc1cc(-c2cc(-c3ccc(Cl)cc3)nc(=O)[nH]2)ccc1O

melting point: 257 to 260 °C
Compound: COc1cc(-c2cc(-c3ccc(N(C)C)nc3)nc(=O)[nH]2)ccc1O.Cl

melting point: 300 to 303 °C
Compound: COc1cc(-c2cc(-c3ccc(N4CCN(C)CC4)cc3)nc(=O)[nH]2)ccc1O (as salt: hydrochloride)

inhibition at 10 µM (CXCR4-CXCL12 binding; Table 2): 96 ± 3%
Compound: COc1ccc(-c2cc(-c3ccc(O)c(OC)c3)[nH]c(=O)n2)cc1 [(2), 4-(4-methoxyphenyl)-6-(4-hydroxy-3-methoxyphenyl)-pyrimidin-2(1H)-one]

inhibition at 10 µM (CXCR4-CXCL12 binding; Table 2): 53 ± 6%
Compound: COc1cc(-c2cc(-c3ccc(O)cc3)nc(=O)[nH]2)ccc1O [(3), 4-(4-hydroxyphenyl)-6-(4-hydroxy-3-methoxyphenyl)-pyrimidin-2(1H)-one]

inhibition at 10 µM (CXCR4-CXCL12 binding; Table 2): 35 ± 4%
Compound: COc1cc(-c2cc(-c3ccc(C(C)C)cc3)nc(=O)[nH]2)ccc1O [(4), 4-(4-isopropylphenyl)-6-(4-hydroxy-3-methoxyphenyl)-pyrimidin-2(1H)-one]

inhibition at 10 µM (CXCR4-CXCL12 binding; Table 2): 46 ± 4%
Compound: COc1cc(-c2cc(-c3ccc(F)cc3)nc(=O)[nH]2)ccc1O [(5), 4-(4-fluorophenyl)-6-(4-hydroxy-3-methoxyphenyl)pyrimidin-2(1H)-one]

inhibition at 10 µM (CXCR4-CXCL12 binding; Table 2): 62 ± 5%
Compound: COc1cc(-c2cc(-c3ccccc3Cl)nc(=O)[nH]2)ccc1O [(7), 4-(2-chlorophenyl)-6-(4-hydroxy-3-methoxyphenyl)pyrimidin-2(11H)-one]

inhibition at 10 µM (CXCR4-CXCL12 binding; Table 2): 46 ± 8%
Compound: COc1cc(-c2cc(-c3ccccc3)nc(=O)[nH]2)ccc1O [(8), 4-(phenyl)-6-(4-hydroxy-3-methoxyphenyl)-pyrimidin-2(1H)-one]

inhibition at 10 µM (CXCR4-CXCL12 binding; Table 2): 52 ± 10%
Compound: O=c1nc(-c2ccc(Cl)cc2)cc(-c2ccc(O)c(OC(F)(F)F)c2)[nH]1 [(9), 4-(4-chlorophenyl)-6-(4-hydroxy-3-(trifluoromethoxy)phenyl)pyrimidin-2(1H)-one]

inhibition at 10 µM (CXCR4-CXCL12 binding; Table 2): 39 ± 7%
Compound: COc1ccc(-c2cc(-c3ccc(Cl)cc3)nc(=O)[nH]2)cc1O [(10), 4-(4-chlorophenyl)-6-(3-hydroxy-4-methoxyphenyl)pyrimidin-2(1H)-one]

melting point: 257 to 261 °C
Compound: COc1cc(-c2cc(-c3ccc(Cl)cc3)nc(=O)[nH]2)ccc1C(=O)O [(27), 4-(6-(4-chlorophenyl)-2-oxo-2,3-dihydropyrimidin-4-yl)-2-methoxybenzoic Acid]

inhibition at 10 µM (CXCR4-CXCL12 binding; Table 4): 44 ± 1%
Compound: COc1cc(-c2cc(-c3ccco3)nc(=O)[nH]2)ccc1O [(28), 4-(furan-2-yl)-6-(4-hydroxy-3-methoxyphenyl)pyrimidin-2(1H)-one]

inhibition at 10 µM (CXCR4-CXCL12 binding; Table 4): 58 ± 15%
Compound: COc1cc(-c2cc(-c3ccc(Cl)s3)nc(=O)[nH]2)ccc1O [(33), 4-(5-chlorothiophen-2-yl)-6-(4-hydroxy-3-methoxyphenyl)pyrimidin-2(1H)-one]

inhibition at 10 µM (CXCR4-CXCL12 binding; Table 3): 83 ± 2%
Compound: COc1cc(-c2cc(-c3ccc(O)c(C)c3)nc(=O)[nH]2)ccc1O [(59)]

inhibition at 10 µM (CXCR4-CXCL12 binding; Table 4): 53 ± 14%
Compound: COc1cc(-c2cc(-c3ccc[nH]3)nc(=O)[nH]2)ccc1O [(60)]

inhibition at 10 µM (CXCR4-CXCL12 binding; Table 3): 26 ± 1%
Compound: COc1ccc(-c2cc(-c3ccc(Cl)cc3)nc(=O)[nH]2)cc1OC [(D), 4-(4-chlorophenyl)-6-(4-methoxy-3-methoxyphenyl)pyrimidin-2(1H)-one, reference compound]

inhibition at 10 µM (CXCR4-CXCL12 binding; Table 3): 1.8 ± 0.7%
Compound: COc1ccc(-c2cc(-c3ccc(O)c(C)c3)nc(=O)[nH]2)cc1OC [(E), 4-(4-hydroxy-3-methylphenyl)-6-(4-methoxy-3-methoxyphenyl)pyrimidin-2(1H)-one, reference compound]

inhibition at 10 µM (CXCR4-CXCL12 binding; Table 2): 4.3 ± 3%
Affinity for CXCL12 (SAR) (CXCR4-CXCL12 binding): loss of affinity
Compound: O=c1nc(-c2ccc(Cl)cc2)cc(-c2ccc(O)cc2)[nH]1 [compound (A), 4-(4-chlorophenyl)-6-(4-hydroxyphenyl)pyrimidin-2(1H)-one, reference compound]

inhibition at 10 µM (CXCR4-CXCL12 binding; Table 2): 19 ± 7%
Compound: O=c1nc(-c2ccc(Cl)cc2)cc(-c2ccccc2)[nH]1 [compound (B), 4-(4-chlorophenyl)-6-phenylpyrimidin-2(1H)-one, reference compound]

inhibition at 10 µM (CXCR4-CXCL12 binding; Table 2): 10 ± 5%
Affinity for CXCL12 (SAR) (CXCR4-CXCL12 binding): loss of affinity
Compound: COc1cccc(-c2cc(-c3ccc(Cl)cc3)nc(=O)[nH]2)c1 [compound (C), 4-(4-chlorophenyl)-6-(3-methoxyphenyl)pyrimidin-2(1H)-one, reference compound]
